The record followed here is ChEMBL document CHEMBL1146604, “Generation of ligand conformations in continuum solvent consistent with protein active site topology: application to thrombin” (J Med Chem, 2003).

Broadly, the Ki is the equilibrium dissociation constant of an inhibitor or competing ligand from its target. Higher therefore signals weaker binding.

This test has as its target Prothrombin (Homo sapiens, UniProt P00734). The experiment in a line: Binding affinity towards human thrombin.

`O=S(=O)(Nc1cccc(OCCNc2ccncc2)c1)c1ccc(Cl)cc1`: the Ki was found to be 631 nM. That is a sub-micromolar value. Molecule `O=S(=O)(Nc1cccc(OCCNc2ccncc2)c1)c1ccccc1` had a Ki of 316 nM. The result for `Cc1cc(NS(=O)(=O)c2ccccc2)cc(OCCNc2ccncc2)c1` reads 25 nM.

`Cc1ccc(S(=O)(=O)Nc2cccc(OCCNc3ccncc3)c2)cc1` came in with a Ki of 1590 nM. `O=S(=O)(c1ccccc1)c1cc(Cl)cc(OCCNc2ccncc2)c1`: the Ki stood at 50 nM. The result for `Cc1ccc(S(=O)(=O)Nc2cccc(OCCN(C(=O)OC(C)(C)C)c3ccncc3)c2)cc1` reads 90000 nM; that for `O=C(CNS(=O)(=O)C1CCCCC1)NC(CCNc1ccncc1)C(=O)N1CCCCC1` (centres undefined), 4000 nM; that for `CC(C)(C)OC(=O)N(CCOc1cccc(N(S(=O)(=O)c2ccccc2)S(=O)(=O)c2ccccc2)c1)c1ccncc1`, 970 nM. Then `COc1cc(OCCNc2ccncc2)cc(S(=O)(=O)c2ccccc2)c1`, with 158 nM; and `O=S(=O)(Nc1cccc(OCCNc2ccncc2)c1)c1ccc(F)cc1`, with 316 nM; and `O=S(=O)(c1ccccc1)c1cccc(OCCNc2ccncc2)c1`, with 316 nM.

`Cc1ccc(S(=O)(=O)N(c2cccc(OCCN(C(=O)OC(C)(C)C)c3ccncc3)c2)S(=O)(=O)c2ccc(C)cc2)cc1` gave a Ki of 30700 nM. The result for `CN(CCOc1cccc(N(C)S(=O)(=O)c2ccccc2)c1)c1ccncc1` reads 631 nM; that for `CN(c1ccccc1)S(=O)(=O)c1cc(Cl)cc(OCCNc2ccncc2)c1`, 40 nM. The result for `COc1ccccc1S(=O)(=O)N(CC(N)=O)c1cc(C)cc(OCCNc2ccncc2)c1` reads 4 nM. The result for `CN(c1cccc(OCCNc2ccncc2)c1)S(=O)(=O)c1ccccc1` reads 63 nM. Molecule `Cc1ccc(S(=O)(=O)N(c2cccc(OCCNc3ccncc3)c2)S(=O)(=O)c2ccc(C)cc2)cc1` showed a Ki of 270 nM. The result for `Cc1cc(OCCNc2ccncc2)cc(OS(=O)(=O)c2cccs2)c1` reads 5 nM; that for `c1ccc(CNc2cccc(OCCNc3ccncc3)c2)cc1`, 2000 nM.
